In ChEMBL document CHEMBL1201862, “PubChem BioAssay data set” (2004):
Active and inactive are the calls of the source.

Experiments:
[1] = biological target: T1, High affinity choline transporter 1 (Homo sapiens, UniProt Q9GZV3); experiment: human choline transporter blockers, potency – cell-based, 10-point CRC, membrane potential dye, dose response (AID 588401); format: functional;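 also: membrane potential dye fluorescence of choline-evoked depolarization via CHT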
T1 sequence (Q9GZV3 whole entry): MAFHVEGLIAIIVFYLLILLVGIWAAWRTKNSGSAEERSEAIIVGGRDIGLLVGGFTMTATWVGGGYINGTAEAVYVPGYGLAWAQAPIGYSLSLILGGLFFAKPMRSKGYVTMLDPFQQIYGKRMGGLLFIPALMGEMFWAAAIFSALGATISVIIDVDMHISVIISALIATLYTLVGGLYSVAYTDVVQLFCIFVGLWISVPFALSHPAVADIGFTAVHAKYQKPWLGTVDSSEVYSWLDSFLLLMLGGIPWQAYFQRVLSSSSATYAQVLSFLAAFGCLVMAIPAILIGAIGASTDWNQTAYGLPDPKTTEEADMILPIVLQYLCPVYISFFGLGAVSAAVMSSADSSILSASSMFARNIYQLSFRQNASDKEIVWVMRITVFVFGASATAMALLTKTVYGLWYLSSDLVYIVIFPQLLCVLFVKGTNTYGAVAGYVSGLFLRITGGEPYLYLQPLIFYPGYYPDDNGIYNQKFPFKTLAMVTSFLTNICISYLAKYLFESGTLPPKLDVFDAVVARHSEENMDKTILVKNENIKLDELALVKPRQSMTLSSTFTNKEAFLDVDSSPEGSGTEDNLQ

[2] = biological target: T1, High affinity choline transporter 1; experiment: human choline transporter blockers, potency – cell-based, 5-point CRC, membrane potential dye, dose response (AID 504840); format: functional
[3] = biological target: T1, High affinity choline transporter 1; experiment: human choline transporter radiolabel uptake blockers – cell-based, 3H-choline uptake, CHT LV-AA trafficking mutant, CRC, dose response (AID 602208); format: functional
[4] = HepG2 cell cytotoxicity, cytotoxicity control, set 4 (AID 504910); format: functional; settings: Mycobacterium tuberculosis
cells = format: functional
[5] = Trypanosoma cruzi growth suppression in host cells – NIH3T3 host cells, beta-gal luminescence, confirmation (AID 2044); format: functional, cell-based;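 also: intracellular parasites grown in NIH/3T3 mouse fibroblasts as host cells; luminescent beta-galactosidase reporter signal from transgenic T. cruzi replicating inside host cells; inhibitors lower the luminescence signal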
[6] = THP-1 cell cytotoxicity, dose response, cytotoxicity control for non-replicating M. tuberculosis project (AID 489025); format: functional
[7] = NIH3T3 cell viability loss – ATP luminescence, mouse fibroblasts, counter-screen, dose response (AID 2010); format: functional, cell-based;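 also: cells exposed to compound for about 90 hours before reading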
[8] = biological target: T2, Microphthalmia-associated transcription factor (Homo sapiens, UniProt O75030); experiment: reducers of TRPM1 reporter luminescence, concentration series – cell-based, SK-MEL-5, cherry-picked, set 3, MITF inhibitor project, dose response (AID 493073); format: functional;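 also: SK-MEL-5 melanoma cells with luciferase driven by the MITF target TRPM1 promoter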
T2 sequence (O75030 whole entry): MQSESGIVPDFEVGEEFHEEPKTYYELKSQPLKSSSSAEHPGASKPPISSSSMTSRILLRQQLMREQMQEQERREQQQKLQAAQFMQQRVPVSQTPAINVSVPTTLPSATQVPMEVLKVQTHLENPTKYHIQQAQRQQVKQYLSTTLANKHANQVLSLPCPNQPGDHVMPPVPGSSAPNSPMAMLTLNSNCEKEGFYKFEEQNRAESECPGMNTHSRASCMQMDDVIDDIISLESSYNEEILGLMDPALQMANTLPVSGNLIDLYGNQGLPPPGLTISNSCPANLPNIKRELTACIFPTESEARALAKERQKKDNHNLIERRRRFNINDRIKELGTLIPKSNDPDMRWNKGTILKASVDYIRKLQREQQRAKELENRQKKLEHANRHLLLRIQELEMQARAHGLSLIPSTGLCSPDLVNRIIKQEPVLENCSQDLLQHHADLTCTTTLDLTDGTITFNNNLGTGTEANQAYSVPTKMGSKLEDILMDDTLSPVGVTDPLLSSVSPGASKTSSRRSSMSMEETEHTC

[9] = biological target: Mitochondrial peptide methionine sulfoxide reductase (Bos taurus, UniProt P54149); experiment: Absorbance-based biochemical high throughput dose response assay for activators of Methionine sulfoxide reductase A (MsrA).; format: functional
Sequence of Mitochondrial peptide methionine sulfoxide reductase (P54149 whole entry): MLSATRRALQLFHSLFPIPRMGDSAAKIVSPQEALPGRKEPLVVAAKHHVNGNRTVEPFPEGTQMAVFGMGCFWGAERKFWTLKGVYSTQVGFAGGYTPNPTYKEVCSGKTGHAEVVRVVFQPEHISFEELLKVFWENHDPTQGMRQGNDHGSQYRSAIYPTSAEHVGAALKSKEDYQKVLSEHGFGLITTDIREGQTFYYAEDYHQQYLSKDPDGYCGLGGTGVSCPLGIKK

[10] = Vero E6 cell cytotoxicity, dose response, cytotoxicity control for non-replicating M. tuberculosis project, secondary assay (AID 492998); format: functional, VeroE6; settings: Vero C1008

Question: With COc1ccc(C(=O)NC2CCc3ccccc32)cc1OC1CCN(C(C)C)CC1 (stereo unspecified) as the compound, how does the IC50 [1] read?
Answer: The IC50 was 3.36 µM (active).

Question: What about the IC50 [2] of the same compound?
Answer: The IC50 was 5.55 µM (active).

Question: What about the IC50 [3] of the same compound?
Answer: The IC50 was 2.12 µM (active).

Question: With Cc1nc(SCC(=O)NC2CCCCC2)nc(O)c1C as the compound, how does the CC50 [4] read?
Answer: The CC50 was > 50 µM (active).

Question: Which results are given for O=C(N/N=C/c1ccc([N+](=O)[O-])s1)c1cccc(Br)c1?
Answer: IC50 (cells): 4.37 µM (active); EC50 [5]: 0.754 µM (active); CC50 [6]: 7.59 µM (active); EC50 [7]: 5.39 µM (active); AC50 [8]: 4.83 µM (active); EC50 [9]: > 104 µM (inactive); CC50 [10]: 6.21 µM (active)
